In patent publication US10660933B2, “Compositions and methods for inhibition of bacterial infections in human endocervix” (priority 2015, dated 2020):

Key:
Type in all cases: cell-based, human
polarized T84 cells [1] = test: Ng-induced exfoliation of polarized T84 monolayers (3D-CFM); details: MS11ΔOpa, 6 h; inhibitor 1 h before and during; ML-7 10 μM, PIK 100 μM, Y27632 10 μM, 2APB 10 μM
Source text: To quantify epithelial exfoliation, the number of Ng associated cells localized on the top of the epithelial monolayer (exfoliated) and the total number of Ng associated epithelial cells was counted by visual inspection in each randomly acquired image, to determine the percentage of exfoliated cells. To estimate the level of Ng penetration into the subepithelium, the number of non-exfoliated epithelial cells (in clearly visible epithelial monolayers) with basal Ng staining and the total number of Ng associated epithelial cells were visually counted to calculate the percentage of infected epithelial cells with Ng penetration into the basolateral side. To evaluate the disruption of the apical junction, the number of Ng associated epithelial cells that lost continuously apical staining of the junctional protein ZO1 and the total number of Ng associated epithelial cells were visually counted to calculate the percentage of Ng associated epithelial cells with apical junction disassembly. To quantify the redistribution of pMLC, the fluorescence intensity ratios (FIR) of pMLC staining at the apical to lateral in individual epithelial cells were determined using average FI as previously described.
(§1) Immunofluorescence analysis of polarized epithelial cells. Cells were pretreated with or without NMII kinase inhibitors, Y27632 (10 μM, EMD Millipore), ML-7 (10 μM, EMD Millipore) and PIK (100 μM) or Ca2+ inhibitors, 2APB (10 μM, EMD Millipore) and BAPTA (50 μM, EMD Millipore) for 1 h, and incubated with Ng in the presence or absence of the inhibitors for 6 h. Cell were washed and fixed with 4% paraformaldehyde, permeabilized with 1% Triton X100, and stained with anti-E-cadherin (BD Bioscience), anti-pMLC (Cell Signaling Technology, Carlsbad, Calif.), anti-Ng antibodies, and DAPI for nuclei. Cells were analyzed by CFM. Images were acquired as Z-series of 0.37 μm slices, and 3D composites obtained. Epithelial exfoliation will be quantified using xz images as described for the tissue explants. The distribution of E-cadherin and pMLC was quantitatively analyzed by measuring the FIR at the apical junctional to the cytoplasmic area (from xy images) or at the apical to lateral surface area (from xz images) in individual cells.

E-cadherin = E-cadherin distribution at the apical junction of Ng-inoculated polarized T84 cells; details: polarized T84, Ng 6 h; ML-7 10 μM, 2APB 10 μM, Y27632 10 μM
Source text: Ng-induced junction disassembly requires NMII activation and Ca^2+ flux but is suppressed by Opa. The linkage between the efficiency of Ng penetration into the epithelium with Ng induced epithelial exfoliation and apical junction disruption shown here and previously implicate Ng induced junction disruption as an underlying cause of epithelial exfoliation. To test this hypothesis, we determined whether Opa expression and the MLCK and Ca^2+ inhibitors, which all inhibited Ng induced epithelial exfoliation, also prevent Ng from disrupting the apical junction. The structural integrity of the apical junction was evaluated by analyzing the distribution of E-cadherin using immunofluorescence (IFM) and 3D-CFM and quantifying the fluorescence intensity ratio (FIR) of E-cadherin at the cytoplasm to that at the apical junction. In polarized T84 cells that were not inoculated with Ng, E-cadherin staining was primarily localized at the apical junction (FIG. 4A, top panels). […]
Immunofluorescence analysis of polarized epithelial cells. […] Cells were analyzed by CFM. […] Epithelial exfoliation will be quantified using xz images as described for the tissue explants. The distribution of E-cadherin and pMLC was quantitatively analyzed by measuring the FIR at the apical junctional to the cytoplasmic area (from xy images) or at the apical to lateral surface area (from xz images) in individual cells.

polarized T84 cells [2] = test: Fence function of the apical junction (CellMask) in polarized T84 cells; details: polarized T84, Ng-inoculated; ML-7 10 μM, 2APB 10 μM
Procedure: Ng-induced junctional disassembly leads to a significant increase in the lateral diffusion between the apical and basolateral membrane but not in the permeability of epithelial monolayers. To determine whether Opa, MLCK and Ca^2+ flux are involved in this functional alteration of the apical junction, we stained the basolateral surface of polarized T84 epithelial cells exclusively with CellMask dye for […], after apical incubation with fluorescently labeled Ng for 6 h. The appearance of basolaterally stained CellMask dye in the apical membrane indicates a decrease in the fence function of the apical junction (FIG. 4D). […] The percentage of cells with basolaterally labeled CellMask reaching the apical surface increased to 19.4% when MS11Opa+ was inoculated and to 62.2% when MS11ΔOpa was inoculated (FIGS. 4E and 4F).
Fence functional of the apical junction. Polarized T84 cells were incubated with Ng apically for 6 h. Then the cells were incubated with the CellMask dye (5 μg/ml, Life Technologies) in the basolateral chamber only for 15 min, and xz images were acquired using Leica TCS SP5X confocal microscope (Leica Microsystems, Buffalo Grove, Ill.). The number of epithelial cells displaying CellMask staining at the apical membrane was countered visually as the percentage of the total number of epithelial cells in each randomly acquired image.

[3] = test system: phosphorylated myosin light chain (pMLC); test: pMLC (active NMII) redistribution in Ng-inoculated polarized T84 cells (3D-CFM); details: for accumulation of pMLC at Ng adherent sites / apical:lateral FIR of pMLC: polarized T84, Ng 6 h; for junction:non-junction FIR of pMLC: polarized T84, Ng 6 h (Y27632: MS11ΔOpa); for junction:non-junction FIR of pMLC / apical:lateral FIR of pMLC: ML-7 10 μM, PIK 100 μM, Y27632 10 μM, 2APB 10 μM, BAPTA 50 μM
Procedure: Ng induce and Opa suppresses the redistribution of active non-muscle myosin II in polarized and endocervical epithelial cells. […] We examined the cellular distribution of active NMII after 6-h incubation with Ng, using antibody specific for phosphorylated myosin light chain (pMLC) and 3D-CFM. In uninfected polarized T84 (FIGS. 5A and 5C) and HEC-1-B cells (FIG. 10), pMLC was primarily localized at the apical junction. The polarized distribution of pMLC at the apical surface was quantified by the FIR of pMLC at the apical to the lateral (Apical:Lateral) membrane areas in individual cells using CFM images scanning across the apical and basolateral surfaces (FIGS. 5A and 5B). The polarized distribution pMLC at the apical junction was quantified by the FIR of pMLC at the junction to non-junction (Junction:Non-junction) areas of the apical region using CFM images scanning through the apical junction (FIGS. 5C and 5D). The apical inoculation of MS11Opa+ and MS11ΔOpa caused significant increases in apical:lateral FIR in both polarized T84 (FIGS. 5A and 5B) and HEC-1-B cells (FIG. 10), compared to the no Ng control. There were also significant increases in the junction:non-junction FIR in infected polarized T84 cells, compared to non-infected cells (FIGS. 5C and 5D). […] We further noticed that NMII at the apical surface appeared to accumulate at Ng adherent sites (FIG. 5A, middle panels, arrows).
as §1

polarized T84 cells [4] = test: Exfoliation of polarized T84 cells treated with inhibitors alone, without Ng; details: no Ng inoculation, 6 h
Procedure: Polarized T84 cells were treated with inhibitors for 6 h, fixed, stained to visualize the cell nuclei, and imaged by 3D-CFM. The percentage of cell moving above the epithelial monolayer (dash lines) was determined from three independent experiments. Scale bar, 5 μm. *p≤0.05.
as §1

Compound	exfoliation of MS11ΔOpa-infected epithelial cells from T84 monolayers (polarized T84 cells [1])	punctuate cytoplasmic staining and cytoplasm:junction FIR of E-cadherin (E-cadherin)	percentage of epithelial cells with CellMask staining leaked to the apical surface (polarized T84 cells [2])	accumulation of pMLC at Ng adherent sites [3]	junction:non-junction FIR of pMLC [3]	apical:lateral FIR of pMLC [3]	epithelial exfoliation with inhibitors alone (polarized T84 cells [4])
NCCOB(c1ccccc1)c1ccccc1 [2APB]	reduced the exfoliation of polarized T84 cells to the level similar to ML-7 and PIK	decreased the punctuate staining of E-cadherin in the cytoplasm and the cytoplasm:junction FIR of E-cadherin to or below the control level	significantly lowered the percentage of epithelial cells with the CellMark staining leaked to the apical surface	decreased	decreased	decreased	did not affect epithelial exfoliation
O=S(=O)(c1cccc2c(I)cccc12)N1CCCNCC1 [ML-7]	reduced the exfoliation	decreased the punctuate staining of E-cadherin in the cytoplasm and the cytoplasm:junction FIR of E-cadherin to or below the control level	significantly lowered the percentage of epithelial cells with the CellMark staining leaked to the apical surface	significantly reduced	significantly reduced	significantly reduced	did not affect epithelial exfoliation
